Assay results taken from patent US5250542A, “Peripherally selective piperidine carboxylate opioid antagonists” (Eli Lilly and Company, priority 1992, dated 1993).
Counter-ions that a name gives are not always drawn. Like-named read-outs stand apart in the source and are kept apart here.

Tests used:
mu receptor = molecular target: T1, mu receptor (Rattus norvegicus, UniProt P33535); test: opioid receptor binding assay, [3H] NAL (tritiated naloxone), mu receptor; parameters: species or system rat (Male Sprague Dawley), brain minus cerebellum; details: for inhibition at 0.01 µM / inhibition at 0.1 µM: 20 min
T1 construct: rat whole brain minus cerebellum for mu was homogenized; from tissue; host or cells: brain of male Sprague Dawley rats, whole brain minus cerebellum, homogenate fraction
T1 sequence (P33535 whole entry): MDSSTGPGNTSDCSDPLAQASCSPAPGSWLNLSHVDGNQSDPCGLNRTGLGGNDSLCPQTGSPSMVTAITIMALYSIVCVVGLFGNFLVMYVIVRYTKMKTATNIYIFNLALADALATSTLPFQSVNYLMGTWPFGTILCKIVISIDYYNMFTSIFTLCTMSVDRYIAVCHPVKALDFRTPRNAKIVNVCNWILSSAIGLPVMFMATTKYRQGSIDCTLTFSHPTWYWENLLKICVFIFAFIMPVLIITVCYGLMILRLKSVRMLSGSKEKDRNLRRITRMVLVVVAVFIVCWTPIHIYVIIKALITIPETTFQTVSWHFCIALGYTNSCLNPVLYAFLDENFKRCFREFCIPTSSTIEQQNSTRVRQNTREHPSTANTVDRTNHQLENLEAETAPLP
Outline: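 Displacement of [3H]naloxone was measured on rat whole brain minus cerebellum membranes, preincubated 20 min and incubated 20 min at 37° C, with filtration separating bound ligand. Ki was derived from IC50 and ligand KD. Percent displacement was also recorded at 10 nM and 100 nM test compound.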

opioid receptor = molecular target: T2, opioid receptor (Mus musculus, UniProt P42866); test: mouse writhing analgesis test: block of morphine-induced analgesia; format: in vivo, CF-1 male mice; parameters: unit not given here; details: dose of antagonist that reduced the inhibition of writhing produced by 1.25 mg/kg morphine sulfate to 50%; subcutaneous, 20 min before acetic acid
T2 construct: Five CF-1 male mice (Charles River, Portage, Mich.); from tissue; host or cells: living CF-1 male mice (in vivo test; endogenous receptor)
T2 sequence (P42866 whole entry): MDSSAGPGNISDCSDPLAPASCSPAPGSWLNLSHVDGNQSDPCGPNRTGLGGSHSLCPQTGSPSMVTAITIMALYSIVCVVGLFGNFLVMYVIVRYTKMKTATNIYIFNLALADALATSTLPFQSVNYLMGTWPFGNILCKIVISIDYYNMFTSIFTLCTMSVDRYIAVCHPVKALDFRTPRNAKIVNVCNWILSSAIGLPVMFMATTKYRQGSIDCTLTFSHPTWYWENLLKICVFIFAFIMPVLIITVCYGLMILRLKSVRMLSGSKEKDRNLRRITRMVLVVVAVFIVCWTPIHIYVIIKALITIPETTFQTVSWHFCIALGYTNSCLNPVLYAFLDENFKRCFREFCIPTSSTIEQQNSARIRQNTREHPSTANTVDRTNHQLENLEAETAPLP
Outline: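 Male CF-1 mice (~20 g, fasted overnight, n=5) dosed subcutaneously 20 min before i.p. 0.6% acetic acid; writhes counted for 10 min starting 5 min post-injection. Antagonism measured as blockade of morphine-induced inhibition of writhing, percent versus vehicle controls; ED50 defined as 50% writhing inhibition.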

[1] = molecular target: T3, peripheral opioid receptors (Mus musculus, UniProt P42866); test: precipitated diarrhea in morphine-maintained mice (peripheral opioid activity) and comparison with the writhing test; format: in vivo; details: for Ratio (AD50 mouse writhing test / ED50 mouse diarrhea test): higher ratio = greater relative antagonism of peripheral opioid receptors; for ED50: mouse, 0.5 h, morphine-maintained mice, antagonist subcutaneous or oral, 30 min observation
T3 construct: Mice maintained (6 mice/cage) on 0.01M saccharin water with 1 g/1 morphine sulfate; from tissue; host or cells: living morphine-maintained mice (in vivo test; endogenous receptor)
T3 sequence (P42866 whole entry): as above
Outline: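 Morphine-dependent mice (1 g/l morphine sulfate in drinking water ≥10 days, withdrawn 45 min before dosing) received antagonist subcutaneously or orally, 5 mice/dose. Diarrhea (and jumping) were scored over 30 min and doses lowered to find the diarrhea threshold. Peripheral selectivity was taken as writhing AD50 divided by diarrhea ED50.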

[2] = read-out: % displacement at 10 nM, 10 nM test compound, [3H] naloxone 0.5 nM
[3] = read-out: % displacement at 100 nM, 100 nM test compound, [3H] naloxone 0.5 nM
[4] = read-out: % displacement at 100 nM
[5] = 10 nM test compound, [3H] naloxone 0.5 nM, read-out: % displacement at 10 nM
[6] = 100 nM test compound, [3H] naloxone 0.5 nM, read-out: % displacement at 100 nM
[7] = read-out: % displacement at 10 nM

Structure (SMILES)	Ki (mu receptor) [nM]	inhibition at 0.01 µM (mu receptor; [2]) [%]	inhibition at 0.1 µM (mu receptor; [3]) [%]	AD50 (opioid receptor)	Ratio (AD50 mouse writhing test / ED50 mouse diarrhea test) [1]	ED50 [1] [mg/kg]	inhibition at 0.1 µM (mu receptor; [4]) [%]	inhibition at 0.01 µM (mu receptor; [5]) [%]	inhibition at 0.1 µM (mu receptor; [6]) [%]	inhibition at 0.01 µM (mu receptor; [7]) [%]
C[C@H]1CN(CC(CC2CCCCC2)C(=O)NCCCC(N)=O)CC[C@@]1(C)c1cccc(O)c1 (some centres unmarked) [Example 40, 4-[[1-oxo-2-(cyclohexylmethyl)-3-[4-(3-hydroxyphenyl)-3,4-dimethyl-1-piperidinyl]propyl]-amino]butanamide hydrochloride]	0.75	95	100	4.5	3.5	1.3				
C[C@H]1CN(CC(CC2CCCCC2)C(=O)NCCC(N)=O)CC[C@@]1(C)c1cccc(O)c1 (some centres unmarked) [Example 38, 3-[[1-oxo-2-cyclohexylmethyl)-3-[4-(3-hydroxyphenyl)-3,4-dimethyl-1-piperidinyl]propyl]-amino]propanamide hydrochloride]	0.48	98	99	> 40	> 667	0.06				
CNC(=O)CCNC(=O)C(CCN1CC[C@@](C)(c2cccc(O)c2)[C@@H](C)C1)C1CCCCC1 (relative stereo) [Example 18, N-[3-(methylamino)-3-oxopropyl]-4-[4-(3-hydroxyphenyl)-3,4-dimethyl-1-piperidinyl]-2-cyclohexyl-butanamide monohydrochloride]	0.43	97		> 40	> 888	0.045				
CNC(=O)CNC(=O)C(CC1CCCCC1)CN1CC[C@@](C)(c2cccc(O)c2)[C@@H](C)C1 (relative stereo) [Example 32, N-[2-methylamino-2-oxoethyl]-3-[4-(3-hydroxphenyl)-3,4-dimethyl(-1-piperidinyl]-2-cyclohexylmethylpropanamidemonohydrochloride]	0.72	97	100	7.3	45	0.16				
C[C@H]1CN(CCC(C(=O)NCC(=O)O)c2ccccc2)CC[C@@]1(C)c1cccc(O)c1 (relative stereo) [Example 12, 2-[[4-[4-(3-hydroxyphenyl)-3,4-dimethyl-1-piperidinyl]-2-phenyl-1-oxobutyl]amino]ethanoic acid monohydrate]	1.89	84		40	2667	0.015	94			
C[C@H]1CN(CC(Cc2ccccc2)C(=O)NCCCC(N)=O)CC[C@@]1(C)c1cccc(O)c1 (some centres unmarked) [Example 63, 4-[[3-[4-(3-hydroxyphenyl)-3,4-dimethyl-1-piperidinyl]-2-(phenylmethyl)-1-oxopropyl]-amino]butanamide monohydrochloride]	2	89	100	26	90	0.29				
CCNC(=O)CNC(=O)CNC(=O)C(Cc1ccccc1)CN1CC[C@@](C)(c2cccc(O)c2)[C@@H](C)C1 (relative stereo) [Example 77]	1.35	88	95	> 40	> 31	1.31				
COc1cccc([C@]2(C)CCN(CC(Cc3ccccc3)C(=O)O)C[C@@H]2C)c1 (single isomer, unassigned) [Example 79]				1.7	13	0.13		0	15	
CCOC(=O)CNC(=O)C(CC1CCCCC1)CN1CC[C@@](C)(c2cccc(O)c2)[C@@H](C)C1 (relative stereo) [Example 29, 2-[[3-[4-(3-hydroxyphenyl-3,4-dimethyl-1-piperidinyl]-2-cyclohexylmethyl-1-oxopropyl]amino]acetic acid ethyl estermonohydrochloride]	2.94	98	100	3.9	23	0.17				
C[C@H]1CN(CC(Cc2ccccc2)C(=O)NCC(=O)OCC(=O)NCc2ccccc2)CC[C@@]1(C)c1cccc(O)c1 (relative stereo) [Example 93]				29.0	3625	0.008		81	95	
C[C@H]1CN(CCC(C(=O)NCC(N)=O)C2CCCCC2)CC[C@@]1(C)c1cccc(O)c1 (relative stereo) [Example 20, N-(2-amino-2-oxoethyl)-4-[4-(3hydroxyphenyl)-3,4-dimethyl-1-piperidinyl]-2-cyclohexylbutanamide hydrochloride monohydrate]	0.78	98	100	32.1	802	0.004				
COC(=O)COC(=O)CNC(=O)C(Cc1ccccc1)CN1CC[C@@](C)(c2cccc(O)c2)[C@@H](C)C1 (relative stereo) [Example 85]				9.5	190	0.05	98	93		
C[C@H]1CN(CC(Cc2ccccc2)C(=O)NCCC(=O)OCc2ccccc2)CC[C@@]1(C)c1cccc(O)c1 (some centres unmarked) [Example 56, hydrochloride]	0.49	97		40	667	0.06	98			
CC(C)OC(=O)CNC(=O)C(Cc1ccccc1)CN1CC[C@@](C)(c2cccc(O)c2)[C@@H](C)C1 (some centres unmarked) [Example 51, 2-[[2-(phenylmethyl)-3-[4-(3-hydroxyphenyl)-3,4-dimethyl-1-piperidinyl]-1-oxopropyl]-amino]ethanoic acid 2-propyl ester monohydrochloride]	5.43	85	97	3.8	25	0.15				
CCNC(=O)CCCNC(=O)C(Cc1ccccc1)CN1CC[C@@](C)(c2cccc(O)c2)[C@@H](C)C1 (some centres unmarked) [Example 64, N-(ethyl)-4-[[3-4-(3-hydroxyphenyl)-3,4-dimethyl-1-piperidinyl]-2-(phenylmethyl)-1-oxopropyl]amino]butanamide monohydrochloride]	1.23	94	100	> 40	> 45	0.9				
C[C@H]1CN(CC(Cc2ccccc2)C(=O)NCC(=O)NCC(=O)O)CC[C@@]1(C)c1cccc(O)c1 (relative stereo) [Example 68, N-(carboxylmethyl-)-2-[[3-[4-(3-hydroxyphenyl)-3,4-dimethyl-1-piperidinyl]-2-(phenylmethyl)-1-oxopropyl]amino]acetamide monohydrate]	1.51	79	86	> 40	> 174	0.23				
C[C@H]1CN(CC(Cc2ccccc2)C(=O)NCC(=O)OCC(N)=O)CC[C@@]1(C)c1cccc(O)c1 (relative stereo) [Example 87]				19	27	0.71		94	99	
CCCCCOC(=O)CNC(=O)C(Cc1ccccc1)CN1CC[C@@](C)(c2cccc(O)c2)[C@@H](C)C1 (relative stereo) [Example 86]				> 40	> 2353	0.017		74	91	
CCOC(=O)C(Cc1ccccc1)CN1CC[C@@](C)(c2cccc(O)c2)[C@@H](C)C1 (relative stereo) [Example 4A, trans-4-(3-hydroxyphenyl)-3,4-dimethyl-a-(phenylmethyl)-1-piperidinepropanoic acid, ethyl ester hydrochloride]	1.38			1.08	9	0.012	98			92
C[C@@H]1CN(CC(Cc2ccccc2)C(=O)NCC(=O)O)CC[C@]1(C)c1cccc(O)c1 (single isomer, unassigned) [Example 98E]				6.2	62	0.1	87			69
